Literature values as cited in patent publication US12251361B2, “Solutions for oral dosage” (LIQMEDS WORLDWIDE LIMITED, priority 2019, dated 2025).

CN(C)CCC=C1c2ccccc2CCc2ccccc21.Cl [Amitriptyline HCl, 3-(10,11-dihydro-5H-dibenzo[a,d]cycloheptene-5-ylidene)-N,N-dimethyl-1-propanamine hydrochloride]
Solubility in water: freely soluble
